Non-standard residues stand in square brackets, D forms with d. Residues, ends and D or L forms follow the SMILES beside them. *: point of attachment. X1 = O=C(CCCC[C@@H]1SC[C@@H]2NC(=O)N[C@@H]21)NCCCOCCOCCOCCCN*; PEG12 = NCCOCCOCCOCCOCCOCCOCCOCCOCCOCCOCCOCCOCCC(=O)O
Experiments:
[1] = tested on: Lysosome labelled H1299 cells; assay: Colocalization with lysosomes by confocal microscopy; format: cell-based, human; settings: 24 h, Streptavidin Alexa Fluor 555 conjugate
Procedure: Lysosome-labelled cells (green) were treated with MGS4_V8-Streptavidin Alexa Fluor 555 for 30 min, 1 h, 4 h, or 24 h. Peptide-containing vesicles (red) are seen at 30 min separate from the labeled lysosomes, which by 1 h have started to colocalize with lysosomal vesicles (yellow). MGS4_V8 remains colocalized with lysosomes at 24 h with >70% of the signal colocalized with lysosomes (Fig. 3b). Trafficking, accumulation, and retention in the lysosomes is even more evident in the compressed maximally projected z-stack of the cells (Fig. 3c). Of note, lysosomal regeneration is observed at 24 h as witnessed by increased green signal from the GFP that is not colocalized with previously internalized MGS4_V8. […]
The time course for lysosomal accumulation was performed by imaging at indicated time points using biotinylated peptide conjugated to Streptavidin-Alexa Fluor 555, Streptavidin-Qdot605, or streptavidin-saporin. Saporin was detected using anti-saporin rabbit polyclonal antibody AB-41AP (1:100 dilution) (Advanced Targeting Systems Bio, San Diego, CA). […] Each pixel of a single slice was evaluated for passing the threshold in red (box 1), green (box 2), or both (box3) for colocalization. Mander’s coefficients are calculated for each slice with 0 indicating no colocalization and 1 being complete colocalization.

H1299 cells = assay: Cell internalization by flow cytometry, absolute uptake (molecules per cell) of peptide-streptavidin-Alexa Fluor 647; format: cell-based, human; settings: for Molecules Internalized Per Cell: Average
Excerpt: Optimizing MGS4 as a monomer is efficient but the optimal valency of the truncated peptide may be different than that of the full-length peptide. The peptide was synthesized as a monomer (MGS4_V8), dimer (MGS4_V9), and tetramer (MGS4_V10). To obtain quantitative data, we moved from measuring the relative fluorescence of dye-labeled peptide to the determination of the average number of dye molecules internalized per cell. […] The dimer MGS4_V9 has an EC50 7-fold lower indicating there is a synergistic effect in going from a monomer to a dimer (Fig. 2a and Table 2). However, there is only a 2-fold decrease in going from a dimer to a tetrameric peptide (MGS4_V10). We also calculated the EC50 on three other NSCLC cell lines (Table 2 and Supplementary Figure 3). […] The average number of peptides internalized per cell at saturating conditions varies, with H1993 cells internalizing the highest number of peptides at all three valencies (Table 2). This is likely due to differing levels of receptor expression on the cell type. The average molecules internalized at 50 nM in one hour follows the same trend (Fig. 2b).
Non-internalized peptide was removed, and the mean number of peptides internalized per cell was determined to calculate the EC50. Individual measurements are shown. The mean is shown as an “X”. Error bars, in black, represent standard error measurements and are below the height of the symbols in some cases. b The average number of peptide molecules per cell at 50 nM at 1 h was determined on four NSCLC cell lines and one normal human bronchial epithelial cell line (HBEC). Error bars represent SEM and individual data points are shown. c H1299 cells were incubated with 50 nM peptide-Streptavidin-Qdot605 for 1 h, removed, and replaced with normal growth media. After 24 h, cells were fixed, and counterstained with DAPI (blue). Representative maximally projected z-stacks for each group reveal no apparent difference in peptide internalization or localization. The scale bar represents 10 µm.
Biotinylated peptide was conjugated to streptavidin-R-phycoerythrin or streptavidin-Alexa Fluor 647 (1:1 molar ratio) for 30 min. The open binding sites on streptavidin were quenched with RPMI 1640 and diluted to the indicated concentration. Tumor cells were grown to 90% confluency in a 12 well plate, then incubated with 500 µl peptide-dye conjugate at 37 °C. After 1 h, peptide was removed, and the cells were washed 3x with PBS (137 mM NaCl, 2.7 mM KCl, 10 mM Na2HPO4, 1.8 mM KH2PO4, pH 7.4), 2x with 0.1 M HCl-glycine pH2.2 in 0.9% NaCl, and 1x PBS rinse. Cells were removed by trypsinization. Flow cytometry was performed on a BD FACSCelesta, and data were analyzed on Flowing software. Cells were gated based on the forward and side scatter to include only viable cells and a minimum of 10,000 events were counted. A region containing <5% of the cells in the negative control was established, and relative peptide uptake by the mean fluorescence intensity of that population. For absolute peptide uptake per cell, a standard curve was generated using Quantum™ Alexa Fluor 647 microspheres (Bangs Laboratory, Fishers, IN). A representative linear regression showing the correlation of molecule equivalents soluble fluorophores (MESF) vs the mean fluorescence intensity (MFI) is shown in Supplemental Figure 6. Cells were gated based on the forward and side scatter to include only viable cells and a minimum of 10,000 events were counted. MFI was determined at 50% at peak height. Molecules internalized per cell were determined by the standard curve relating MESF to MFI and divided by the number dye molecules/MGS conjugate. An example is shown in supplemental Figure 7. GraphPad Prism® was used for non-linear regression curve fitting to calculate an EC50. Parameters and statistical analysis are provided (Supplementary Tables 2–6). Experiments were repeated a minimum of three times. […]

`CC(=O)N[C@@H](Cc1ccccc1)C(=O)N[C@@H](Cc1c[nH]cn1)C(=O)N[C@@H](C)C(=O)N[C@H](C(=O)N1CCC[C@H]1C(=O)N[C@@H](CCC(N)=O)C(=O)N[C@@H](CO)C(=O)N[C@@H](Cc1ccccc1)C(=O)N[C@@H](Cc1ccc(O)cc1)C(=O)N[C@H](C(=O)NCCOCCOCCOCCOCCOCCOCCOCCOCCOCCOCCOCCOCCC(=O)N[C@@H](CCC(=O)NCCCOCCOCCOCCCNC(=O)CCCC[C@@H]1SC[C@@H]2NC(=O)N[C@@H]21)C(N)=O)[C@@H](C)O)C(C)C` [MGS4_V8] (Ac-FHAVPQSFYT[PEG12]E(X1)-NH2) was tested, and the “signal colocalized with lysosomes” value [1] was over 70%, the “Molecules Internalized Per Cell” value (H1299 cells; 0.01 nM) was 0 and the “Molecules Internalized Per Cell” value (H1299 cells; 1 nM) was 88. For the same compound, the “Molecules Internalized Per Cell” value (H1299 cells; 10 nM) was 3648, the “Molecules Internalized Per Cell” value (H1299 cells; 20 nM) was 3316 and the “Molecules Internalized Per Cell” value (H1299 cells; 30 nM) was 10700. For the same compound, the “Molecules Internalized Per Cell” value (H1299 cells; 40 nM) was 21020, the “Molecules Internalized Per Cell” value (H1299 cells; 50 nM) was 36807 and the “Saturation (molecules)” value (H1299 cells; H1299 Cells, peptides internalized per cell at saturation) was 40,400 ± 5100 molecules. It also gave a HillSlope (H1299 cells; Supplementary Table 3) of 5.657, a LogIC50 (H1299 cells; Supplementary Table 3) of -7.417 and a Top (H1299 cells; Supplementary Table 3, molecules per cell) of 40400.

From article PMC9845330 (Communications Biology, 2023)
